{
  "source": "patent US20040073277A1",
  "about": "“High fluence rate activation of photosensitizers for dermatological applications” (priority 2002, published 2004)",
  "key": {"actinic keratoses [1]": {"system": "actinic keratoses", "settings": "cited from earlier work"}, "[2]": {"system": "photoaged or wrinkled skin", "settings": "following ALA-PDT; cited from earlier work"}, "acne [3]": {"system": "acne", "settings": "red light from a halogen lamp, 13 J/cm^2; cited from earlier work"}, "actinic keratoses [4]": {"system": "actinic keratoses", "settings": "irradiation 4 hours after ALA, 580 to 740 nm lamp, 20 J/cm^2; cited from earlier work"}, "actinic keratoses [5]": {"system": "actinic keratoses", "test": "ALA-PDT of lesional skin with pulsed dye laser below the purpura threshold", "assay_type": "in vivo, human", "description": "The present invention is generally directed to a method for activation of photodynamic sensitizers in dermatologic application.\nThe pulsed dye laser was operated below the purpura threshold of the skin at a fluence of about 3.0 to about 7.5 J/cm^2. […] Treatment was performed and successful with and without surface cooling. Surface cooling provided epidermal protection and additional pain reduction."}, "hair follicles": {"system": "hair follicles", "settings": "photodynamic injury to hair follicles; cited from earlier work"}, "acne [6]": {"system": "acne", "settings": "20% ALA for 3 hours on the back; broadband lamp 550 to 700 nm, 150 J/cm^2; cited from earlier work"}, "[7]": {"settings": "20% ALA for 6 hours, 585 nm, 1.5 milliseconds, 18 J/cm^2"}, "[8]": {"settings": "actinic keratoses, pulsed dye laser 595 nm below purpura threshold"}},
  "note": "Where two headings read alike, the source gives them in different places.",
  "data": [
    {"compound": "NCC(=O)CCC(=O)O", "note": "[ALA, 5-Aminolevulinic acid]", "values": [
      {"measurement": "efficacy of pulsed dye laser versus conventional lamp", "setting": "actinic keratoses [1]; [7]", "result": "similar"},
      {"measurement": "pain with pulsed dye laser versus conventional lamp", "setting": "actinic keratoses [1]; [7]", "result": "significantly lower"},
      {"measurement": "duration of purpura after treatment", "setting": "actinic keratoses [1]; pulsed dye laser only, 585 nm, 1.5 milliseconds, 18 J/cm^2", "result": "up to two weeks"},
      {"measurement": "duration of erythema and crusting after treatment", "setting": "actinic keratoses [1]; similar for pulsed dye laser and conventional lamp", "result": "up to two weeks"},
      {"measurement": "photoaged or wrinkled skin", "setting": "[2]", "result": "improve"},
      {"measurement": "side effects", "setting": "acne [3]", "result": "edematous erythema, epidermal exfoliation and irritation lasting several days, and pigmentation changes"},
      {"measurement": "therapeutic response", "setting": "acne [3]", "result": "excellent therapeutic response"},
      {"measurement": "time for treated skin to return to normal", "setting": "acne [3]", "result": "one month"},
      {"measurement": "side effects", "setting": "actinic keratoses [4]", "result": "erythema and skin erosions occurred"},
      {"measurement": "treatment outcome of the lesion", "setting": "actinic keratoses [5]; ALA applied to lesional skin, pulsed dye laser 595 nm, pulse duration 3 to 40 milliseconds, fluence about 3.0 to about 7.5 J/cm^2", "result": "successfully treated"},
      {"measurement": "pain, crusting and erosions of treated lesions", "setting": "actinic keratoses [5]; [8]", "result": "reduction in pain and in crusting and erosions"},
      {"measurement": "purpura", "setting": "actinic keratoses [5]; [8]", "result": "without purpura"},
      {"measurement": "efficacy compared with conventional ALA-PDT", "setting": "actinic keratoses [5]; pulsed light source", "result": "efficacy equivalent to conventional ALA-PDT"},
      {"measurement": "side effects compared with conventional ALA-PDT", "setting": "actinic keratoses [5]; pulsed light source", "result": "fewer and minimal side effects"},
      {"measurement": "excessive or unwanted hair", "setting": "hair follicles", "result": "reduced"},
      {"measurement": "acne response", "setting": "acne [6]", "result": "improved"},
      {"measurement": "side effects", "setting": "acne [6]", "result": "erythema, edema, exfoliation, and long-lasting hyperpigmentation"}
    ]}
  ]
}
